The source of these data is publication PMC6471528, “Biological Evaluation and Molecular Docking Studies of Dimethylpyridine Derivatives” (Molecules, 2019).

Assay [1] relates to V79 (fibroblast from Chinese hamster lung). In words: Sulforhodamine B cytotoxicity assay, V79. Type of assay: cell-based. The note with it: Cricetulus griseus, SRB assay, 48 h, mean (SD), n = 3. The source says:
(§1) The sulforhodamine B assay was used to estimate the cytotoxic properties of the compounds. The cytotoxic activity of dimethylpyridine derivatives was studied against human cancer cell lines: A549 (pulmonary basal cell alveolar adenocarcinoma) and LoVo (colon adenocarcinoma). Additionally, the effect of compounds on NHDF (normal human dermal fibroblasts) and normal cell line V79 (fibroblast from Chinese hamster lung) was examined.
(§2) Normal human dermal fibroblasts (NHDF) from adult donors were purchased from Lonza (Verviers, Belgium). Normal cell line V79 (fibroblast from Chinese hamster lung) and human cancer cell lines, A549 (pulmonary basal cell alveolar adenocarcinoma) and LoVo (colon adenocarcinoma) were obtained from the European Collection of Authenticated Cell Cultures (ECACC).
(§3) Cells were grown in the culture media recommended by the cell line supplier. Before the test, adherent cells were detached with the trypsin EDTA solution, and FBS-containing medium was used to neutralize the effects of the trypsin/EDTA solution. After that, cells were spun down, counted, stained with a 0.4% solution of trypan blue and inspected under a microscope for cell viability. Then, cells were placed on 96-well plastic culture plates (2 × 10^3 cells/well) and incubated at 37 °C in a CO2-incubator for 24 h. Afterwards, all the tested compounds were added at appropriate final concentrations (100 µM, 50 µM, 20 µM, 10 µM, 5 µM), and the cultures were incubated for 48 h in CO2-incubator at 37 °C. Finally, cells were harvested and intended for the cell proliferation test.
(§4) Cell density/cell proliferation was estimated with the sulforhodamine B (SRB)-colorimetric assay. Briefly, cell cultures were fixed with cold TCA (final concentration 10% (w/v) in cultures of adherent cells for 1 h at 4 °C, then washed four times with tap water and air-dried at room temperature (20–25 °C). A mildly-acidic SRB solution (0.4% dye solution in 1% acetic acid) was added to each well for 30 min at 25 °C. Then, the unbound stain was removed by rinsing with an aqueous solution of 1% (v/v) acetic acid. Culture plates were then allowed to dry at room temperature. The protein-bound dye was dissolved in 10 mM Tris base solution (pH 10.5) for 10 min on a gyratory shaker. Absorbance of the SRB solution was estimated at 540 nm in a Victor 2 microplate reader (Perkin-Elmer, Waltham, MA, USA).
In general terms: Sulforhodamine B stains cellular protein and so reports cell mass.

Assay [2] has as its system NHDF (normal human dermal fibroblasts). In words: Sulforhodamine B cytotoxicity assay, NHDF. The note with it: SRB assay, 48 h, mean (SD), n = 3. The assay is classed as cell-based.
Description: as §1, §2, §3, §4

For assay [3], the system named is A549 (pulmonary basal cell alveolar adenocarcinoma). Put plainly: Sulforhodamine B cytotoxicity assay, A549. Type of assay: cell-based. The conditions noted are these: Homo sapiens, SRB assay, 48 h, mean (SD), n = 3.
Description: as §1, §2, §3, §4

Assay [4] has as its system LoVo (colon adenocarcinoma). Put plainly: Sulforhodamine B cytotoxicity assay, LoVo. The assay is classed as cell-based. The note with it: Homo sapiens, SRB assay, 48 h, mean (SD), n = 3.
Description: as §1, §2, §3, §4

The next assay addresses T1, COX-1 (Ovis aries, UniProt P05979).
T1 construct: purchased Cayman Chemical Company
T1 sequence (P05979 25-600): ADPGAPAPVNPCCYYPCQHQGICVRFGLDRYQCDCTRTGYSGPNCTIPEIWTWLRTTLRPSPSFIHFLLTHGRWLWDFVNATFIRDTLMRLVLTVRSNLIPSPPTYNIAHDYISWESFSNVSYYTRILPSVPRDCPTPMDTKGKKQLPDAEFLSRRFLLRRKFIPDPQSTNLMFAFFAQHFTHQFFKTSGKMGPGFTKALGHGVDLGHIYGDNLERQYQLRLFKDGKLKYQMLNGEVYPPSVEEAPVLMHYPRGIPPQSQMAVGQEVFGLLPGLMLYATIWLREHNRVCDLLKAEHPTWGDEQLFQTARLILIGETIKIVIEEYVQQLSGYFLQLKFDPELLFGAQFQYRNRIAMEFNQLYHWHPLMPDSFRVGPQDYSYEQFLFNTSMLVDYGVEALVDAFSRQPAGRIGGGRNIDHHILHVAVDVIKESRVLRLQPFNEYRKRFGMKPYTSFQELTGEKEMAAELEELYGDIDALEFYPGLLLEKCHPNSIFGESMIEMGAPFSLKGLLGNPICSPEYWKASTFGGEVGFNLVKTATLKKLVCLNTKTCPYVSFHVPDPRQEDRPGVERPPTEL
In words: COX colorimetric inhibitor screening assay (TMPD oxidation), COX-1. The assay is classed as biochemical. The conditions noted are these: for IC50: read-out: IC50 (µM),(SD) COX-1; for inhibitory activity on COX-1 (in words): 2 min of incubation. How it is done:
(§5) The compounds were investigated for their potencies to inhibit COX-1 and COX-2 enzymes by the colorimetric inhibitor screening assay.
(§6) Selectivity of the compounds to COX-1 or to COX-2 was assessed by calculation of the IC50 ratios.
(§7) This method allows one to estimate the peroxidase activity of COX by colorimetric monitoring of the occurrence of the oxidized form of N,N,N′,N′-tetramethyl-p-phenylenediamine (TMPD) at 590 nm. TMPD is a substrate for most enzymes with peroxidase activity, and high throughput microplate assays using TMPD allow the rapid screening of a wide range of therapeutics that inhibit COX activity in vitro.
(§8) The test is based on the oxidation of TMPD during the reduction of PGG2 (prostaglandin G2) to PGH2, which is reflected by a change in colour, measured spectrophotometrically (Victor2 microspectrophotometer, PerkinElmer Waltham, MA, USA). The assay uses Tris-HCl buffer (0.1 M assay buffer, pH 8.0), a solution of heme in dimethylsulfoxide (DMSO), enzymes (COX-1, COX-2), arachidonic acid (100 μM), KOH (0.1 M) and a solution of TMPD. The assay mixture contains: 150 µL of assay buffer, 10 µL of heme and 10 µL of COX-1 or COX-2. In order to determine 100% enzyme activity (each COX sample was assayed in triplicate), 10 µL of the substances used as solvents (methanol, ethanol, DMSO) was added to the wells. Ten microlitres of tested inhibitors at appropriate concentrations were added to the other wells. Twenty microlitres of TMPD were added to all wells. The reaction was initiated by the addition of arachidonic acid.
(§9) The effect of tested inhibitors on COX-1 and COX-2 enzyme activity was measured by assaying the rate of TMPD oxidation within 2 min in a spectrophotometer at 590 nm.
(§10) The activity factor at 2 min of incubation with the tested compounds in comparison to the initial activity of the enzyme was determined.

In the next assay the target is T2, COX-2 (Homo sapiens, UniProt P35354).
T2 construct: purchased Cayman Chemical Company
T2 sequence (P35354 18-604): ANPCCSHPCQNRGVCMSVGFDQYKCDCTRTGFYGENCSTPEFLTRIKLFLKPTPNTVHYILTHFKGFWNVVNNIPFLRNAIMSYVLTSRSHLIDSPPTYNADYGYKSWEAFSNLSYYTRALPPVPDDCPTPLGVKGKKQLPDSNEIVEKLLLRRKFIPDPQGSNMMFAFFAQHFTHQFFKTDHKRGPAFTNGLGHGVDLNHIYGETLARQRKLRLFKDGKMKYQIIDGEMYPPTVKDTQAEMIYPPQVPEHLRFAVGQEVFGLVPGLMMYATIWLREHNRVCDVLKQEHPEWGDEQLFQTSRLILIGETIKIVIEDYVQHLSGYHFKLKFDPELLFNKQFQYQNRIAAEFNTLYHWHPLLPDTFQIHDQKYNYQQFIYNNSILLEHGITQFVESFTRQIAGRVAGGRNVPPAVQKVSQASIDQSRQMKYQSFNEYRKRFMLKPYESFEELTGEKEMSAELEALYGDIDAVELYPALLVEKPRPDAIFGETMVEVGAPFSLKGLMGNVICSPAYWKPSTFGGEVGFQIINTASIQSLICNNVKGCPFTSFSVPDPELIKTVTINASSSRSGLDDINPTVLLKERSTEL
In words: COX colorimetric inhibitor screening assay (TMPD oxidation), COX-2. The conditions noted are these: for Ratio: COX-2/COX-1: ratio of IC50 values COX-2/COX-1; for IC50: read-out: IC50 (µM),(SD) COX-2; for inhibitory activity on COX-2 (in words): 2 min of incubation. The assay is classed as biochemical. How it is done: as §5, §6, §7, §8, §9, §10

In the case of `Cc1cnc(NC(=O)C2=C(O)c3ccccc3S(=O)(=O)N2C)s1` [Meloxicam, reference compound], the IC50 (as a rule, the concentration that inhibits the measured activity by half) in assay [1] turned out to be 232 µM; in assay [2] it was 206 µM; in assay [3], 148 µM; in assay [4], 125 µM.

Consider `Cc1cc(C)c(C(=O)NCC(=O)N/N=C/c2ccccc2)c(S)n1` [PS18, N′-phenylmethylene derivative], for which the IC50 came to 275 µM in assay [1]; 171 µM in assay [2]; 154 µM in assay [3]; 57.3 µM at COX-1; 139 µM on COX-2; 135 µM in assay [4]. At COX-2, the “Ratio: COX-2/COX-1” value came to 2.4.

As to `Cc1ccc(/C=N/NC(=O)CNC(=O)c2c(C)cc(C)nc2S)cc1` [PS33, N′-4-methylphenylmethylene derivative], the IC50 was determined as 178 µM in assay [1]; 159 µM in assay [2]; 156 µM in assay [3]; 51.8 µM on COX-1; 143 µM at COX-2; 131 µM in assay [4]. Besides, the “Ratio: COX-2/COX-1” value at COX-2 is recorded as 2.8.

`Cc1cc(C)c(C(=O)NCC(=O)N/N=C/c2cccc3ccccc23)c(S)n1` [PS34, N′-naphtylmethylene derivative] displayed an IC50 in assay [1] of 421 µM. For the same compound, the “inhibitory activity on COX-1 (in words)” value at COX-1 is recorded as “no inhibitory activity”. In addition, on COX-2, the “inhibitory activity on COX-2 (in words)” value is on record as “no inhibitory activity”.

As to `Cc1cc(C)c(C(=O)NCC(=O)N/N=C/c2c3ccccc3cc3ccccc23)c(S)n1` [PS35], the IC50 in assay [1] was determined as 196 µM; in assay [2], 202 µM; in assay [4], 212 µM. For the same compound, the “inhibitory activity on COX-1 (in words)” value against COX-1 is “no inhibitory activity”. The “inhibitory activity on COX-2 (in words)” value on COX-2 is “no inhibitory activity”.

For the compound `Cc1cc(C)c(C(=O)NCC(=O)N/N=C/c2ccc([N+](=O)[O-])cc2)c(S)n1` [PS36], the IC50 is 141 µM in assay [1]; 144 µM in assay [2]; 164 µM in assay [3]; 731 µM on COX-2; 99.8 µM in assay [4]. Besides, on COX-1, the “inhibitory activity on COX-1 (in words)” value is “did not show any inhibitory activity”.

On to `Cc1cc(C)c(C(=O)NCC(=O)N/N=C/c2ccc(C(F)(F)F)cc2)c(S)n1` [PS38], for which the figures for the IC50 in assay [1] and in assay [3] were 172 µM and 504 µM, respectively. Besides, the “inhibitory activity on COX-1 (in words)” value at COX-1 was “no inhibitory activity”. Further, the “inhibitory activity on COX-2 (in words)” value against COX-2 is given as “no inhibitory activity”.

For `Cc1cc(C)c(C(=O)NCC(=O)N/N=C/c2cc([N+](=O)[O-])ccc2Cl)c(S)n1` [PS39], the IC50 in assay [1] was determined as 147 µM; in assay [2], 391 µM; in assay [3], 120 µM; in assay [4], 103 µM. On COX-1, the “inhibitory activity on COX-1 (in words)” value is given as “no inhibitory activity”. Moreover, the “inhibitory activity on COX-2 (in words)” value at COX-2 is listed as “no inhibitory activity”.

In the case of `Cc1cc(C)c(C(=O)NCC(=O)N/N=C/c2ccc(Cl)cc2Cl)c(S)n1` [PS41], the IC50 in assay [1] came out at 418 µM; in assay [2], 336 µM; in assay [3], 220 µM; in assay [4], 154 µM. The “inhibitory activity on COX-1 (in words)” value against COX-1 is given as “no inhibitory activity”. The “inhibitory activity on COX-2 (in words)” value on COX-2 is given as “no inhibitory activity”.

In the case of `CCOc1ccccc1/C=N/NC(=O)CNC(=O)c1c(C)cc(C)nc1S` [PS42], the IC50 stood at 162 µM in assay [1]; 132 µM in assay [2]; 140 µM in assay [3]; 72.8 µM at COX-1; 177 µM on COX-2; 133 µM in assay [4]. Besides, the “Ratio: COX-2/COX-1” value on COX-2 was found to be 2.4.

As to `CN1C(C(=O)Nc2ccccn2)=C(O)c2ccccc2S1(=O)=O` [Piroxicam, reference compound], the IC50 came out at 200 µM in assay [1], 138 µM in assay [3] and 122 µM in assay [4].
